Results from patent US20090264392A1, “TREATING EOSINOPHILIC ESOPHAGITIS” (Meritage Pharma, Inc., priority 2008, published 2009).

Tests used:
[1] = tested on: patients with greater than 15 eos/HPF and solid food dysphagia (EoE); assay: Example 2: BRG therapy of eosinophilic esophagitis in adults; format: in vivo, human; settings: 8 patients who had previously received fluticasone
Method: An oral gel combining budesonide with the mucosal adherent preparation Rincinol (the combination referred to as “BRG”) was compounded. Patients with abnormal Mayo dysphagia questionnaires underwent EGD with biopsies. 16 patients with greater than 15 eos/HPF and solid food dysphagia were enrolled in the study and treated with BRG. Patients were instructed to take BRG 3mg/10 cc BID. If patients noted marked improvement at one week, they were switched to once daily BRG for 6 weeks; otherwise they were continued on BID BRG for a total of 6 weeks. Dysphagia symptoms and BRG side effects over the last two weeks of treatment were assessed by personal interview. Symptoms were evaluated on a scale of dysphagia resolution: <25%, 25-49%, 50-74%, 75-99% or complete resolution. Those patients, who had previously utilized topical fluticasone for EoE, were asked to compare BRG vs topical fluticasone with respect to treatment effect and tolerance.

[2] = tested on: eosinophilic esophogitis (EoE) patients; assay: Example 1: budesonide gel therapy in patients with EoE; format: in vivo, human; settings: tolerance comparison; seven patients who received fluticasone and budesonide therapy
Method: Eighteen patients were entered into the study (mean age 41; 5 females; 13 males). 16 patients had more than 15 eos/HPF on tissue obtained from the esophagus by biopsy during endoscopy. […] Both these patients responded completely to steroids. The mean serum eosinophil count was 215. Three patients had normal endoscopies. Six patients had strictures. […] Mucosal fragility was described in one patient. […] 14 patients underwent allergy testing.
The following symptoms were recorded: dysphagia (18/18), heartburn (9/18), regurgitation (4/18), asthma (5/18), allergic skin disease (1/18), seasonal allergies (8/18), proton pump inhibitor (PPI) medication use to treat esophageal reflux disease (10/18), and history of food impaction (15/18).
Budesonide gel (3 mg/10 mL Rincinol) was formulated as provided below. Preparation involved accurate weighing and measuring of the ingredients. Trituration of the powder into the Rincinol liquid was performed using geometric dilution techniques. The product was stirred using a stir plate, packaged, and labeled.
The standard dose was 3 mg twice a day for one week, which was then decreased to once a day for six weeks. 11 of 18 patients received standard dosing. Six of 18 patients received an alternate treatment regiment of 3 mg twice a day for a variable treatment period of time of greater than one week. The longest of which was eight months. […]

## C[C@@H]1C[C@H]2[C@@H]3C[C@H](F)C4=CC(=O)C=C[C@]4(C)[C@@]3(F)[C@@H](O)C[C@]2(C)[C@@]1(O)C(=O)SCF [fluticasone]
[1]
  patients who favored fluticasone (tolerance): 25%
[2]
  patients who preferred fluticasone: Two of the seven
